This test has as its target T1, recombinant human ALX receptor (Homo sapiens, UniProt P25090).
T1 construct: expressed in transfected cells; host or cells: HEK293 (HEK293-hALXR-Gα16)
T1 sequence (P25090 1-351): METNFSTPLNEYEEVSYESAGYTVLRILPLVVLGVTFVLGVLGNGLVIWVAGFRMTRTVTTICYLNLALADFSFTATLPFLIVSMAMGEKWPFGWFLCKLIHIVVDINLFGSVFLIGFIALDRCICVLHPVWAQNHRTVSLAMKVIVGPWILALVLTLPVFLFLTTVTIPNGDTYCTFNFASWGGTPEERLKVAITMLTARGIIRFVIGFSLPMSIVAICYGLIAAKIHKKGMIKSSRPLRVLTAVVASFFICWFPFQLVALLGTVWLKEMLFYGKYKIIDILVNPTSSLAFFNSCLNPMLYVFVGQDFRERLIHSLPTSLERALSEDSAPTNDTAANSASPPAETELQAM
In words: Intracellular calcium measurements (FLIPR), ALX receptor agonistic activity. Conditions: HEK293-hALXR-Gα16 cells, Fluo-4 calcium fluorescence, normalized to 10 nM WKYMVm. It is filed as cell-based. Here is the method:
The ALX receptor agonistic activity of the compounds of formula (I) is determined in accordance with the following experimental method.
Intracellular Calcium Measurements:
Cells expressing recombinant human ALX receptor and the G-protein Gα16 (HEK293-hALXR-Gα16) were grown to 80% confluency in Growing Medium (GM). […] Stock solutions of test compounds were made up at a concentration of 10 mM in DMSO, and serially diluted in AB to concentrations required for activation dose response curves. WKYMVm (Phoenix Peptides) was used as a reference agonist. A FLIPR384 instrument (Molecular Devices) was operated according to the manufacturer's standard instructions, adding 4 μl of test compound dissolved at 10 mM in DMSO and diluted prior to the experiment in assay buffer to obtain the desired final concentration. Changes in fluorescence were monitored before and after the addition of test compounds at lex=488 nm and lem=540 nm. Emission peak values above base level after compounds addition were exported after base line subtraction. Values were normalized to high-level control (WKYMVm compound, 10 nM final concentration) after subtraction of the base line value (AB addition). The program XLlfit 3.0 (IDBS) was used to fit the data to a single site dose response curve of the equation (A+((B−A)/(1+((C/x)^D)))) and to calculate the EC50 values.

As usually defined, the EC50 is the concentration needed to bring the measured effect to its halfway point. For the compound `CC(=O)c1ccc(Cn2cc(NC(=O)c3ncoc3-c3cccc(C(F)(F)F)n3)cn2)o1` [Example 419, 5-(6-Trifluoromethyl-pyridin-2-yl)-oxazole-4-carboxylic acid [1-(5-acetyl-furan-2-ylmethyl)-1H-pyrazol-4-yl]-amide], the EC50 was found to be 66 nM.

As to `CC(=O)CCCCn1ccc(NC(=O)c2ncoc2-c2ccccc2)n1` [Example 179, 5-Phenyl-oxazole-4-carboxylic acid [1-(5-oxo-hexyl)-1H-pyrazol-3-yl]-amide], the half-maximal effective concentration (EC50) worked out at 955 nM.

With `CC(F)(F)c1csc(Cn2ccc(NC(=O)c3ncoc3-c3ccccc3)n2)n1` [Example 461, 5-Phenyl-oxazole-4-carboxylic acid {1-[4-(1,1-difluoro-ethyl)-thiazol-2-ylmethyl]-1H-pyrazol-3-yl}-amide], the EC50 is 1090 nM.

As to `CC(=O)c1ccc(Cn2ccc(NC(=O)OCc3cc(F)c(F)cc3F)n2)o1` [Example 24, [1-(5-Acetyl-furan-2-ylmethyl)-1H-pyrazol-3-yl]-carbamic acid 2,4,5-trifluoro-benzyl ester], the 50% effective concentration (EC50) was 33 nM.

Turning to `CC(=O)c1nc(Cn2cc(NC(=O)OCc3ccccc3Cl)cn2)co1` [Example 466, [1-(2-Acetyl-oxazol-4-ylmethyl)-1H-pyrazol-4-yl]-carbamic acid 2-chloro-benzyl ester], the 50% effective concentration (EC50) was 34 nM.

Take `CC(=O)CCCCn1ccc(NC(=O)OCc2ccc(F)c(F)c2)n1` [Example 169, [1-(5-Oxo-hexyl)-1H-pyrazol-3-yl]-carbamic acid 3,4-difluoro-benzyl ester]: the concentration giving a half-maximal response (EC50) is 363 nM.

On to `COc1ccc(-c2ocnc2C(=O)Nc2ccn(Cc3ccc(C(C)=O)o3)n2)cc1` [Example 48, 5-(4-Methoxy-phenyl)-oxazole-4-carboxylic acid [1-(5-acetyl-furan-2-ylmethyl)-1H-pyrazol-3-yl]-amide], for which the concentration giving a half-maximal response (EC50) was 198 nM.

Take `CC(=O)c1ccc(Cn2ccc(NC(=O)c3ncoc3-c3ccccc3)n2)s1` [Example 376, 5-Phenyl-oxazole-4-carboxylic acid [1-(5-acetyl-thiophen-2-ylmethyl)-1H-pyrazol-3-yl]-amide]: the EC50 amounted to 74 nM.

Regarding `CC(=O)CCCCn1cc(NC(=O)OCc2nc3ccccc3s2)cn1` [Example 462, [1-(5-Oxo-hexyl)-1H-pyrazol-4-yl]-carbamic acid benzothiazol-2-ylmethyl ester], the EC50 worked out at 43 nM.

Turning to `CC(F)(F)c1ccc(Cn2ccc(NC(=O)c3ncoc3-c3ccccc3)n2)o1` [Example 198, 5-Phenyl-oxazole-4-carboxylic acid {1-[5-(1,1-difluoro-ethyl)-furan-2-ylmethyl]-1H-pyrazol-3-yl}-amide], the EC50 was found to be 310 nM.

Regarding `CC(=O)c1ccc(Cn2cc(NC(=O)c3ncoc3-c3ccc(C)cc3)cn2)o1` [Example 331, 5-p-Tolyl-oxazole-4-carboxylic acid [1-(5-acetyl-furan-2-ylmethyl)-1H-pyrazol-4-yl]-amide], the EC50 was found to be 85 nM.

Regarding `CC(=O)c1cc(Cn2cc(NC(=O)OCc3ccccc3Cl)cn2)ccn1` [Example 407, [1-(2-Acetyl-pyridin-4-ylmethyl)-1H-pyrazol-4-yl]-carbamic acid 2-chloro-benzyl ester], the concentration giving a half-maximal response (EC50) was determined as 58 nM.

In the case of `O=C(Nc1cnn(Cc2ccc(C(=O)C3CC3)o2)c1)OCc1ccccc1Cl` [Example 3, [1-(5-Cyclopropanecarbonyl-furan-2-ylmethyl)-1H-pyrazol-4-yl]-carbamic acid 2-chloro-benzyl ester], the EC50 is 205 nM.

For the compound `CC(=O)c1ncc(Cn2ccc(NC(=O)c3ncoc3-c3ccccc3)n2)o1` [Example 440, 5-Phenyl-oxazole-4-carboxylic acid [1-(2-acetyl-oxazol-5-ylmethyl)-1H-pyrazol-3-yl]-amide], the 50% effective concentration (EC50) stood at 143 nM.

Turning to `COCc1nc(C(=O)Nc2cnn(Cc3ccc(C(C)=O)o3)c2)c(-c2ccccc2)o1` [Example 416, 2-Methoxymethyl-5-phenyl-oxazole-4-carboxylic acid [1-(5-acetyl-furan-2-ylmethyl)-1H-pyrazol-4-yl]-amide], the EC50 stood at 61 nM.

For the compound `CC(=O)CCCCn1ccc(NC(=O)/C=C/c2ccccc2C(F)(F)F)n1` [Example 181, (E)-N-[1-(5-Oxo-hexyl)-1H-pyrazol-3-yl]-3-(2-trifluoromethyl-phenyl)-acrylamide], the EC50 is 67 nM.

Take `CC(F)(F)CCCCn1cc(NC(=O)c2ncoc2-c2ccccc2)cn1` [Example 204, 5-Phenyl-oxazole-4-carboxylic acid [1-(5,5-difluoro-hexyl)-1H-pyrazol-4-yl]-amide]: the 50% effective concentration (EC50) amounted to 195 nM.

For `CC(=O)c1ccc(Cn2cc(NC(=O)c3ncoc3-c3ccnc(F)c3)cn2)o1` [Example 412, 5-(2-Fluoro-pyridin-4-yl)-oxazole-4-carboxylic acid [1-(5-acetyl-furan-2-ylmethyl)-1H-pyrazol-4-yl]-amide], the EC50 stood at 179 nM.

Regarding `CC(=O)c1cc(Cn2cc(NC(=O)c3ncoc3-c3ccccc3)cn2)on1` [Example 362, 5-Phenyl-oxazole-4-carboxylic acid [1-(3-acetyl-isoxazol-5-ylmethyl)-1H-pyrazol-4-yl]-amide], the EC50 came to 1470 nM.

Regarding `CC(=O)c1cccc(Cn2cc(NC(=O)c3ncoc3-c3ccccc3)cn2)n1` [Example 364, 5-Phenyl-oxazole-4-carboxylic acid [1-(6-acetyl-pyridin-2-ylmethyl)-1H-pyrazol-4-yl]-amide], the EC50 turned out to be 809 nM.

With `COc1cccc(/C=C/C(=O)Nc2cnn(Cc3ccc(C(C)=O)o3)c2)c1OC` [Example 93, (E)-N-[1-(5-Acetyl-furan-2-ylmethyl)-1H-pyrazol-4-yl]-3-(2,3-dimethoxy-phenyl)-acrylamide], the EC50 amounted to 210 nM.

Consider `CC(F)CCCCn1cc(NC(=O)OCc2ccccc2Cl)cn1` (centres unmarked) [Example 236, [1-(5-Fluoro-hexyl)-1H-pyrazol-4-yl]-carbamic acid 2-chloro-benzyl ester], for which the half-maximal effective concentration (EC50) came out at 118 nM.

For `CC(=O)c1cncc(Cn2cc(NC(=O)OCc3ccccc3Cl)cn2)c1` [Example 382, [1-(5-Acetyl-pyridin-3-ylmethyl)-1H-pyrazol-4-yl]-carbamic acid 2-chloro-benzyl ester], the concentration for a half-maximal effect (EC50) came to 401 nM.

For the compound `CC(=O)c1ccc(Cn2ccc(NC(=O)c3nc(CN)oc3-c3ccccc3)n2)o1` [Example 390, 2-Aminomethyl-5-phenyl-oxazole-4-carboxylic acid [1-(5-acetyl-furan-2-ylmethyl)-1H-pyrazol-3-yl]-amide], the EC50 came to 727 nM.

Take `CC(=O)c1nc(Cn2cc(NC(=O)OCc3ccccc3Cl)cn2)cs1` [Example 409, [1-(2-Acetyl-thiazol-4-ylmethyl)-1H-pyrazol-4-yl]-carbamic acid 2-chloro-benzyl ester]: the EC50 is 805 nM.

On to `CC(=O)c1ccc(Cn2cc(NC(=O)OCc3ccc(C(F)(F)F)cc3)cn2)o1` [Example 63, [1-(5-Acetyl-furan-2-ylmethyl)-1H-pyrazol-4-yl]-carbamic acid 4-trifluoromethyl-benzyl ester], for which the concentration for a half-maximal effect (EC50) was determined as 53 nM.

As to `CC(F)(F)c1ccc(Cn2cc(NC(=O)c3ncoc3-c3ccccc3)cn2)o1` [Example 200, 5-Phenyl-oxazole-4-carboxylic acid {1-[5-(1,1-difluoro-ethyl)-furan-2-ylmethyl]-1H-pyrazol-4-yl}-amide], the EC50 turned out to be 46 nM.

For the compound `CC(=O)CCCCn1cc(NC(=O)OC(C)c2ccccc2)cn1` (racemic) [Example 125, [1-(5-Oxo-hexyl)-1H-pyrazol-4-yl]-carbamic acid (RS)-1-phenyl-ethyl ester], the EC50 was 69 nM.

On to `CC(=O)c1ccc(Cn2cc(NC(=O)c3nc(C4CC4)oc3-c3ccccc3)cn2)s1` [Example 401, 2-Cyclopropyl-5-phenyl-oxazole-4-carboxylic acid [1-(5-acetyl-thiophen-2-ylmethyl)-1H-pyrazol-4-yl]-amide], for which the concentration for a half-maximal effect (EC50) amounted to 49 nM.

Values taken from patent US8288419B2, “Aminopyrazole derivatives” (Actelion Pharmaceuticals, Ltd, priority 2007, dated 2012).
